The Ki is a measure of affinity in units of concentration, obtained from inhibition or displacement.

Our source for the Ki values is ChEMBL document CHEMBL2074312, “Involvement of multispecific organic anion transporter, Oatp14 (Slc21a14), in the transport of thyroxine across the blood-brain barrier” (Endocrinology, 2004).

The test has as its target Solute carrier organic anion transporter family member 1C1. In words: TP_TRANSPORTER: inhibition of L-T4 uptake in Oatp14-expressing HEK293 cells. It counts as functional, cell-based.

For the molecule `O=C(O)Cc1cc(I)c(Oc2ccc(O)c(I)c2)c(I)c1` [TIRATRICOL], affinity was put at a Ki of 2.15 µM. `C[C@]12CC[C@@H]3c4ccc(O)cc4CC[C@H]3[C@@H]1CC[C@@H]2O[C@@H]1O[C@H](C(=O)O)[C@@H](O)[C@H](O)[C@H]1O` [ESTRADIOL 17B GLUCURONIDE]: the Ki is above 100 µM. For `N[C@H](Cc1cc(I)c(Oc2cc(I)c(O)c(I)c2)c(I)c1)C(=O)O` [DEXTROTHYROXINE], the Ki amounted to 0.27 µM. In turn, `N[C@@H](Cc1cc(I)c(Oc2ccc(O)c(I)c2)c(I)c1)C(=O)O` [LIOTHYRONINE] came in with an inhibition constant Ki of 24.2 µM. In turn, `C[C@]12CC[C@@H]3c4ccc(OS(=O)(=O)O)cc4CC[C@H]3[C@@H]1CCC2=O` [ESTRONE SULFURIC ACID] returned a Ki of 53.1 µM. `N[C@@H](Cc1ccc(Oc2cc(I)c(O)c(I)c2)c(I)c1)C(=O)O` [REVERSE TRIIODOTHYRONINE] gave a Ki of 0.91 µM. Molecule `CCCN(CCC)S(=O)(=O)c1ccc(C(=O)O)cc1` [PROBENECID] displayed an inhibition constant (Ki) of 293 µM.
